Earlier results, collected in patent US10603329B2 (INDENA S.P.A., priority 2006, dated 2020).

System: cancer cells
Settings: in vitro; read-out: IC50, growth of cancer cells

IC50: 20 to 75 µM
Compound: COc1cc(C=CC(=O)CC(=O)C=Cc2ccc(O)c(OC)c2)ccc1O [curcumin, 1,7-bis(4-hydroxyl-3-methoxyphenyl)-1,6-heptadiene-3,5-dione]
